Converted amounts (≈) assume the structure as drawn. Where a name gives a salt, the structure may show the parent alone. Read-outs that look alike come from different tables or passages of the source.
How the values were obtained:
[1] = tested on: S.aureus BB5703; assay: In vitro antibacterial activity, agar plate dilution method; type: cell-based; settings: Staphylococcus aureus, MH agar, 10⁶CFU/ml, 16 hours at 37°C, read-out: Minimum inhibitory concentration (MIC) S.aureus BB5703
Protocol: (§1) One platinum loopful portions of a test strain (quantity of each strain inoculated : 10⁶CFU/ml) cultured overnight in Mueller Hinton broth were inoculated respectively into MH agars containing an antibacterial agent in various concentrations. After 16 hours culture at 37°C, minimum inhibitory concentration (MIC: µg/ml) was measured.

[2] = tested on: S.aureus BB5769; assay: as above; type: cell-based; settings: Staphylococcus aureus, MH agar, 10⁶CFU/ml, 16 hours at 37°C, read-out: Minimum inhibitory concentration (MIC) S.aureus BB5769
Protocol: as §1

[3] = tested on: S.aureus JS1; assay: as above; type: cell-based; settings: Staphylococcus aureus, β-lactamase-producing bacterium, MH agar, 10⁶CFU/ml, 16 hours at 37°C, read-out: Minimum inhibitory concentration (MIC) S.aureus JS1
Protocol: as §1

[4] = target: T1, DNA topoisomerase I (Mus musculus, UniProt Q04750); assay: DNA topoisomerase inhibition activity (DNA relaxation, agarose-gel electrophoresis); type: biochemical, murine; settings: relaxation of supercoiled pBR 322 plasmid DNA, 37°C for 10 minutes, enzyme from L1210 nuclei; read-out: IC₅₀ DNA topoisomerase I (converted)
T1 construct: obtained by purifying an extract from the nuclei of cells of L1210 murine leukemia by column chromatography; endogenous in cells; host or cells: L1210 murine leukemia cells (nuclear extract, purified on hydroxylapatite / phosphocellulose columns)
T1 sequence (Q04750 1-767): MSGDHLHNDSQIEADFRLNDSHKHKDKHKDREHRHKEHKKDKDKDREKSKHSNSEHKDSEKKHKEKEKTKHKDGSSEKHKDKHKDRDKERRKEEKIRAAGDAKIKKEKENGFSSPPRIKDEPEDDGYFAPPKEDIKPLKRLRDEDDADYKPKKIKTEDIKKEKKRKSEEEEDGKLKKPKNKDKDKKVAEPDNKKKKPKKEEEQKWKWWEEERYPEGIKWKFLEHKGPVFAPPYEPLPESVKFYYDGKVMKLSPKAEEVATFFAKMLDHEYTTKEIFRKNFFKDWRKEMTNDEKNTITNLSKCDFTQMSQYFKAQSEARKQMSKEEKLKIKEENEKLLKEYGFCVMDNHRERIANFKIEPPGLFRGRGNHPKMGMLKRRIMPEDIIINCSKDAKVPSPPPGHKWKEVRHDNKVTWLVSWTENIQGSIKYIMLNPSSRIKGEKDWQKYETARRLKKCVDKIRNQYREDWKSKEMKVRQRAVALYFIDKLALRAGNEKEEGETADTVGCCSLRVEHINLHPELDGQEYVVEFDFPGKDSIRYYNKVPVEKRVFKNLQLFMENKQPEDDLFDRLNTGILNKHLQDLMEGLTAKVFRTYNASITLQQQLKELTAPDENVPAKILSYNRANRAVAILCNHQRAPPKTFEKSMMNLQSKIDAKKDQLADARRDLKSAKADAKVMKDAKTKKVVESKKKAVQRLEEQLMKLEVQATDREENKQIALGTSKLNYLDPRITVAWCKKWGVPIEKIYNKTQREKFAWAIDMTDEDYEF
Protocol: (§2) In this experiment, as enzymes were used DNA topoisomerase I and DNA topoisomerase II obtained by purifying an extract from the nuclei of cells of L1210 murine leukemia by column chromatography using hydroxylapatite and phosphocellulose, respectively, and as a DNA was used supercoiled pBR 322 plasmid DNA.
(§3) Measurement of inhibition effect was made by the method disclosed in a literature, i. e. Okura et al., Biochem. Biophys. Res. Comm. 157, 183 - 189, 1988, namely by warming at 37°C for 10 minutes the supercoiled DNA in DNA topoisomerase I or DNA topoisomerase II solutions containing a drug in various concentrations, and then detecting the resultant topology changes of the DNA as changes of the electrophoretic images in agarose - gel electrophoresis.

[5] = target: DNA topoisomerase II; assay: as above; type: biochemical, murine; settings: relaxation of supercoiled pBR 322 plasmid DNA, 37°C for 10 minutes, enzyme from L1210 nuclei
Protocol: as §2, §3

[6] = tested on: L1210 cells; assay: In vitro cytotoxicity against L1210 murine leukemia (proliferation inhibition); type: cell-based; settings: Mus musculus, read-out: IC₅₀
Protocol: In this experiment, respective 2 × 10⁴ L1210 cells were cultured at 37°C under 5% CO₂ gas for 3 days in respective RPMI 1640 media containing a drug in various concentrations and 10 % fetal bovine serum, and the numbers of the cells after the culture were counted using a Coulter counter.

[7] = tested on: L1210; assay: Life-span prolonging effect on L1210 leukemia-bearing mice; type: in vivo, CDF₁ mice; settings: for effect at an administration quantity of 0.02 mg/kg: life-span prolongation, 0.02 mg/kg intraperitoneal
Protocol: (§4) In this experiment, 10⁶ L1210 cells or 10⁴ P388 cells were intraperitoneally transplanted into CDF₁ mice (♀, 5 weeks old), a drug in the various concentrations was intraperitoneally injected once a day for continuous 10 days from the day after the transplantation, and survival periods after the tumor transplantation were recorded.

[8] = tested on: P388/V; assay: Proliferation inhibition, drug-sensitive P388 cells (MTT method); type: cell-based, murine; settings: Mus musculus, P388, 72 h, 3 days culture, read-out: IC₅₀ P388/V
Protocol: (§5) Proliferation inhibition effects againt P388/multiple drug - resistant cells were measured using vincristine and adriamycin as comparative compounds.
(§6) In this experiment, a drug - sensitive strain (P388/S) of a murine leukemia cell P388 and a drug - resistant strain (P388/VCR, T. Turuo, H. Iida, S. Tsukagoshi, et al., Cancer Research 42, 4730 - 4733, 1982) were suspended respectively in RPMI 1640 media containing a drug in various concentrations, 10 % fetal bovine serum and 20 µ M β - mercaptoethanol, respectively, and seeded in a 96 - well microtest plate in a number of 10⁴ cells/well, and cultured at 37°C under CO₂ gas for 3 days. Calculation of 50% proliferation inhibition concentration (IC₅₀) was made by the MTT method (M. C. Alley, D. A. Scudiero, A. Monks, et al., Cancer Research 48, 589 - 601, 1988).

[9] = tested on: P388/VCR; assay: Proliferation inhibition, multiple drug-resistant P388 cells (MTT method); type: cell-based, murine; settings: Mus musculus, 72 h, 3 days culture, read-out: IC₅₀ P388/VCR
Protocol: as §5, §6

[10] = tested on: P388; assay: Life-span prolonging effect on P388 leukemia-bearing mice; type: in vivo, CDF₁ mice
Protocol: as §4

[11] = Acute toxicity against a mouse; type: in vivo, CDF₁ mice; settings: 5 mg/kg intravenously, observation for one week
Protocol: 5 mg/kg portions of the compound of Example 9 were intravenously injected into CDF₁ mice (♀, 5 weeks old) according to a conventional manner, respectively.

[12] = dose 0.020 mg/kg intraperitoneally once a day for 10 days
[13] = dose 0.078 mg/kg intraperitoneally once a day for 10 days
[14] = dose 0.313 mg/kg intraperitoneally once a day for 10 days
[15] = 72 h, L1210 cells, cultured 3 days, Coulter counter

Structure (SMILES)	MIC [1]	MIC [2]	MIC [3]	IC50 [4]	IC₅₀ DNA topoisomerase II [5]	Mean survival days L1210 [7, 12]	T/C % L1210 [7, 12]	Mean survival days L1210 [7, 13]	T/C % L1210 [7, 13]	Mean survival days L1210 [7, 14]	T/C % L1210 [7, 14]	effect at an administration quantity of 0.02 mg/kg [7]	IC50 [6, 15]	IC50 [8]	IC50 [9]	further results
N[C@@H]1C=CC[C@@H]2CN(c3c(F)cc4c(=O)c(C(=O)O)cn(C5CC5)c4c3F)C[C@@H]21.O=C(O)C(F)(F)F (relative stereo) [Compound of Ex.1, 7 - [(1R*, 2R*, 6S*) - 2 - amino - 8 - azabicyclo [4.3.0]non - 3 - en - 8 - yl] - 1 - cyclopropyl - 6, 8 - difluoro - 1, 4 - dihydro-4 - oxo - 3 - quinolinecarboxylic acid trifluoroacetate]	< 0.006 µg/mL	< 0.006 µg/mL	< 0.006 µg/mL	–	–	–	–	–	–	–	–	–	–	–	–	–
CN[C@@H]1C=CC[C@@H]2CN(c3c(F)cc4c(=O)c(C(=O)O)cn(C5CC5)c4c3F)C[C@@H]21.O=C(O)C(F)(F)F (relative stereo) [Compound of Ex.2, 1 - cyclopropyl - 6, 8 - difluoro - 1, 4 - dihydro - 7 - [(1R*, 2R*, 6S*) - 2 - (N - methylamino) - 8 - azabicyclo [4.3.0]non - 3 - en - 8 - yl] - 4 - oxo - 3 - quinolinecarboxylic acid trifluoroacetate]	< 0.006 µg/mL	< 0.006 µg/mL	< 0.006 µg/mL	–	–	–	–	–	–	–	–	–	–	–	–	–
COc1c(N2C[C@H]3CC=C[C@@H](N)[C@H]3C2)c(F)cc2c(=O)c(C(=O)O)cn(C3CC3)c12 (relative stereo) [Compound of Ex.11, (-) - 7 - [(1R*, 2R*, 6S*) - 2 - amino - 8 - azabicyclo [4.3.0]non - 3 - en - 8 - yl] - 1 - cyclopropyl - 6 - fluoro - 1, 4 - dihydro - 8 - methoxy - 4 - oxo - 3 - quinolinecarboxlic acid hydrochloride]	–	–	–	3020 µM	2 µg/mL	25.8 days	188%	> 50.8 days	371%	16.4 days	120%	effective	–	–	–	IC50 ([6]; L1210, 72 h): 0.032 µg/mL
Cl.N[C@@H]1C=CC[C@@H]2CN(c3c(F)cc4c(=O)c(C(=O)O)cn(C5CC5)c4c3F)C[C@@H]21 (single isomer, unassigned) [Compound of Ex.9, (-) - 7 - [(1R*, 2R*, 6S*) - 2 - amino - 8 - azabicyclo [4.3.0]non - 3 - en - 8 - yl] - 1 - cyclopropyl - 6, 8 - difluoro - 1, 4 - dihydro - 4 - oxo - 3 - quinolinecarboxylic acid hydrochloride]	–	–	–	457 µM	2 µg/mL	31.0 days	226%	32.4 days	236%	21.2 days	155%	effective	0.019 µg/mL	0.018 µg/mL	0.018 µg/mL	Mean survival days P388 [10, 12]: 12.0 days; T/C % P388 [10, 12]: 107%; Mean survival days P388 [10, 13]: 14.0 days; T/C % P388 [10, 13]: 125%; Mean survival days P388 [10, 14]: 16.4 days; T/C % P388 [10, 14]: 146%; death in acute toxicity test [11]: No case of death
Cl.Nc1c(F)c(N2C[C@H]3CC=C[C@@H](N)[C@H]3C2)c(F)c2c1c(=O)c(C(=O)O)cn2C1CC1 (single isomer, unassigned) [Compound of Ex.13, (-) - 5 - amino - 7 - [(1R*, 2R*, 6S*) 2 - amino - 8 - azabicyclo [4.3.0]non - 3 - en - 8 - yl] - 1 - cyclopropyl - 6, 8 - difluoro - 1, 4 - dihydro - 4 - oxo - 3 - quinolinecarboxylic acid hydrochloride]	< 0.006 µg/mL	< 0.006 µg/mL	< 0.006 µg/mL	221 µM	4 µg/mL	–	–	–	–	–	–	–	0.0015 µg/mL	–	–	–
COc1cccc2c1C(=O)c1c(O)c3c(c(O)c1C2=O)C[C@@](O)(C(=O)CO)C[C@@H]3O[C@H]1C[C@H](N)[C@H](O)[C@H](C)O1 [Adriamycin, adriamycin]	–	–	–	–	–	–	–	–	–	–	–	–	–	0.021 µg/mL (≈ 0.0386 µM)	0.063 µg/mL (≈ 0.116 µM)	–
CC[C@@]1(O)C(=O)OCc2c1cc1n(c2=O)Cc2cc3ccccc3nc2-1 [Camptothecin, camptothecin, reference compound]	–	–	–	–	> 10 µg/mL	–	–	–	–	–	–	–	0.04 µg/mL (≈ 0.115 µM)	–	–	–
COc1cc([C@@H]2c3cc4c(cc3[C@@H](O[C@@H]3O[C@@H]5CO[C@@H](C)O[C@H]5[C@H](O)[C@H]3O)[C@H]3COC(=O)[C@H]23)OCO4)cc(OC)c1O [Etoposide, etoposide, reference compound]	–	–	–	–	–	14.2 days	104%	22.8 days	166%	31.4 days	229%	no effect	0.021 µg/mL (≈ 0.0357 µM)	–	–	Mean survival days P388 [10, 12]: 12.8 days; T/C % P388 [10, 12]: 114%; Mean survival days P388 [10, 13]: 16.6 days; T/C % P388 [10, 13]: 148%; Mean survival days P388 [10, 14]: 22.2 days; T/C % P388 [10, 14]: 198%
CC[C@]1(O)C[C@H]2CN(CCc3c([nH]c4ccccc34)[C@@](C(=O)OC)(c3cc4c(cc3OC)N(C=O)[C@H]3[C@@](O)(C(=O)OC)[C@H](OC(C)=O)[C@]5(CC)C=CCN6CC[C@]43[C@@H]65)C2)C1 [Vincristine, vincristine]	–	–	–	–	–	–	–	–	–	–	–	–	–	0.00032 µg/mL (≈ 0.000388 µM)	0.019 µg/mL (≈ 0.023 µM)	–
